Assay results as given in patent US10040759B2, “Substituted azetidinyl compounds as GlyT1 inhibitors” (DART NEUROSCIENCE (CAYMAN) LTD., priority 2014, dated 2018).

biological target: T1, GlyT1 (Homo sapiens, UniProt P48067); assay: Glycine Transporter 1 (GlyT1) uptake assay, scintillation proximity assay of [14C]-glycine uptake; type: cell-based; conditions: [14C]-glycine uptake; read-out: GlyT1 (pIC50) (converted)
T1 construct: expressed in transfected cells
T1 sequence (P48067 1-706): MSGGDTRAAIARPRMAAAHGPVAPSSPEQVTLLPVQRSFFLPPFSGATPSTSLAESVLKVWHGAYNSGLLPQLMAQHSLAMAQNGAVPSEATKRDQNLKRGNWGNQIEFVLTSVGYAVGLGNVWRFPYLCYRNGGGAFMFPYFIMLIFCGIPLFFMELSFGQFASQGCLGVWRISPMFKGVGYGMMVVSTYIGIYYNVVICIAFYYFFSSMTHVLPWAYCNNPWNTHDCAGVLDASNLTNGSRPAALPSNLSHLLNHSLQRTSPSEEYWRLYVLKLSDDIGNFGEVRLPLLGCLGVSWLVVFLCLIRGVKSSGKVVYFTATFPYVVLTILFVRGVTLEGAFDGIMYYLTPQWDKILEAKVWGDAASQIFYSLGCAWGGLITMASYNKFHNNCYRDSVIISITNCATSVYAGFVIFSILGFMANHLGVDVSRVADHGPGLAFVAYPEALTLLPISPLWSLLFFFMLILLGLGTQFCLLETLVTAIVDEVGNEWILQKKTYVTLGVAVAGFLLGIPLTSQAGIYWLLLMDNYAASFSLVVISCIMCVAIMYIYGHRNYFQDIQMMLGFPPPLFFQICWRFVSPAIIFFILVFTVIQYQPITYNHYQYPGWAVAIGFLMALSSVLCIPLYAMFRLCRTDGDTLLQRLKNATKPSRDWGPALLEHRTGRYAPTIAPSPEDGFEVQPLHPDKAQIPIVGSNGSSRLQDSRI
How it was run: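 IC50 values were derived by four-parameter logistic fitting of counts. The 2× compound solutions were made by 1:100 dilution into HBSS of DMSO serial dilutions.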

| Structure (SMILES) | IC50 [nM] |
| --- | --- |
| COc1c(C#N)ccc(C2(F)CCC2)c1C(=O)N1CC(c2ccc(C#N)cc2Cl)C1 [Example 134, 3-{[3-(2-Chloro-4-cyanophenyl)azetidin-1-yl]carbonyl}-4-(1-fluorocyclobutyl)-2-methoxybenzonitrile] | < 100 |
| COc1c(C#N)ccc(O[C@@H](C)C(F)(F)F)c1C(=O)N1CC(c2ccc(C#N)cc2Cl)C1 [Example 118, 3-{[3-(2-Chloro-4-cyanophenyl)azetidin-1-yl]carbonyl}-2-methoxy-4-{[(2S)-1,1,1-trifluoropropan-2-yl]oxy}benzonitrile] | < 100 |
| COc1c(S(C)(=O)=O)ccc(O[C@@H](C)C(F)(F)F)c1C(=O)N1CC(c2ccccc2C(F)(F)F)C1 [Example 199, 1-(3-Methanesulfonyl-2-methoxy-6-{[(2S)-1,1,1-trifluoropropan-2-yl]oxy}benzoyl)-3-[2-(trifluoromethyl)phenyl]azetidine] | < 100 |
| COc1c(C#N)ccc(O[C@@H](C)C(F)(F)F)c1C(=O)N1CC(c2ccc(C#N)cc2)C1 [Example 108, 3-{[3-(4-Cyanophenyl)azetidin-1-yl]carbonyl}-2-methoxy-4-{[(2S)-1,1,1-trifluoropropan-2-yl]oxy}benzonitrile] | 1000 to 10000 |
| COc1c(C#N)ccc(OC(C)C(F)(F)F)c1C(=O)N1CC(c2ccccc2C(F)(F)F)C1 (centres unmarked) [Example 90, 2-Methoxy-3-({3-[2-(trifluoromethyl)phenyl]azetidin-1-yl}carbonyl)-4-[(1,1,1-trifluoropropan-2-yl)oxy]benzonitrile] | < 100 |
| COc1c(S(C)(=O)=O)ccc(O[C@@H](C)C(F)(F)F)c1C(=O)N1CC(c2ccc(C(F)(F)F)cc2C)C1 [Example 40, 1-(3-Methanesulfonyl-2-methoxy-6-{[(2S)-1,1,1-trifluoropropan-2-yl]oxy}benzoyl)-3-[2-methyl-4-(trifluoromethyl)phenyl]azetidine] | 1000 to 10000 |
| COc1c(S(C)(=O)=O)ccc(O[C@@H](C)C(F)(F)F)c1C(=O)N1CC(c2ccc(C(F)(F)F)c(F)c2)C1 [Example 141, 3-[3-Fluoro-4-(trifluoromethyl)phenyl]-1-(3-methanesulfonyl-2-methoxy-6-{[(2S)-1,1,1-trifluoropropan-2-yl]oxy}benzoyl)azetidine] | 100 to 1000 |
| COc1c(C#N)ccc(O[C@H](C)C(F)(F)F)c1C(=O)N1CC(c2ccc(C(F)(F)F)cc2)C1 [Example 256, 2-Methoxy-3-({3-[4-(trifluoromethyl)phenyl]azetidin-1-yl}carbonyl)-4-{[(2R)-1,1,1-trifluoropropan-2-yl]oxy}benzonitrile] | 1000 to 10000 |
| CC(Oc1ccc(C#N)c(Cl)c1C(=O)N1CC(Oc2ccc(F)cc2)C1)C(F)(F)F (centres unmarked) [Example 73, 2-Chloro-3-{[3-(4-fluorophenoxy)azetidin-1-yl]carbonyl}-4-[(1,1,1-trifluoropropan-2-yl)oxy]benzonitrile] | < 100 |
| COc1c(C#N)ccc(OCC(F)(F)F)c1C(=O)N1CC(c2ccc(C(F)(F)F)cn2)C1 [Example 125, 2-Methoxy-4-(2,2,2-trifluoroethoxy)-3-({3-[5-(trifluoromethyl)pyridin-2-yl]azetidin-1-yl}carbonyl)benzonitrile] | < 100 |
| COc1c(S(C)(=O)=O)ccc(O[C@@H](C)C(F)(F)F)c1C(=O)N1CC(Oc2ccccc2C)C1 [Example 48, 1-(3-Methanesulfonyl-2-methoxy-6-{[(2S)-1,1,1-trifluoropropan-2-yl]oxy}benzoyl)-3-(2-methylphenoxy)azetidine] | 1000 to 10000 |
| COc1c(C#N)ccc(C2(F)CCC2)c1C(=O)N1CC(c2ccc(C(F)(F)F)cc2)C1 [Example 3, 4-(1-Fluorocyclobutyl)-2-methoxy-3-({3-[4-(trifluoromethyl)phenyl]azetidin-1-yl}carbonyl)benzonitrile] | < 100 |
| COc1c(C#N)ccc(C2(F)CCOCC2)c1C(=O)N1CC(F)(c2ccc(C(F)(F)F)cc2)C1 [Example 17, 3-({3-Fluoro-3-[4-(trifluoromethyl)phenyl]azetidin-1-yl}carbonyl)-4-(4-fluorooxan-4-yl)-2-methoxybenzonitrile] | 100 to 1000 |
| COc1c(S(C)(=O)=O)ccc(O[C@H](C)C(F)(F)F)c1C(=O)N1CC(Cc2ccc(C(F)(F)F)cc2)C1 [Example 149, 1-(3-Methanesulfonyl-2-methoxy-6-{[(2R)-1,1,1-trifluoropropan-2-yl]oxy}benzoyl)-3-{[4-(trifluoromethyl)phenyl]methyl}azetidine] | < 100 |
| COc1c(S(C)(=O)=O)ccc(O[C@@H](C)C(F)(F)F)c1C(=O)N1CC(Oc2c(F)cc(F)cc2F)C1 [Example 59, 1-(3-Methanesulfonyl-2-methoxy-6-{[(2S)-1,1,1-trifluoropropan-2-yl]oxy}benzoyl)-3-(2,4,6-trifluorophenoxy)azetidine] | < 100 |
| COc1c(C#N)ccc(C2(F)CCOCC2)c1C(=O)N1CC(Nc2ccc(C(F)(F)F)cn2)C1 [Example 1, 4-(4-Fluorotetrahydro-2H-pyran-4-yl)-2-methoxy-3-(3-((5-(trifluoromethyl)pyridin-2-yl)amino)azetidine-1-carbonyl)benzonitrile] | < 100 |
| COc1c(C#N)ccc(OC(C)C(F)(F)F)c1C(=O)N1CC(c2ccc(C(F)(F)F)nc2)C1 (centres unmarked) [Example 113, 2-Methoxy-3-({3-[6-(trifluoromethyl)pyridin-3-yl]azetidin-1-yl}carbonyl)-4-[(1,1,1-trifluoropropan-2-yl)oxy]benzonitrile] | < 100 |

The next lines start with the values.

| IC50 [nM] | Structure (SMILES) |
| --- | --- |
| < 100 | COc1c(S(C)(=O)=O)ccc(O[C@@H](C)C(F)(F)F)c1C(=O)N1CC(c2cc(F)c(F)cc2F)C1 [Example 154, 1-(3-Methanesulfonyl-2-methoxy-6-{[(2S)-1,1,1-trifluoropropan-2-yl]oxy}benzoyl)-3-(2,4,5-trifluorophenyl)azetidine] |
| 100 to 1000 | COc1c(S(C)(=O)=O)ccc(O[C@@H](C)C(F)(F)F)c1C(=O)N1CC(Oc2cccc(C(F)(F)F)c2)C1 [Example 44, 1-(3-Methanesulfonyl-2-methoxy-6-{[(2S)-1,1,1-trifluoropropan-2-yl]oxy}benzoyl)-3-[3-(trifluoromethyl)phenoxy]azetidine] |
| < 100 | COc1c(S(C)(=O)=O)ccc(OCC(F)(F)F)c1C(=O)N1CC(c2ccc(C#N)cc2Cl)C1 [Example 237, 3-Chloro-4-{1-[3-methanesulfonyl-2-methoxy-6-(2,2,2-trifluoroethoxy)benzoyl]azetidin-3-yl}benzonitrile] |
| < 100 | COc1c(S(C)(=O)=O)ccc(OCC(F)(F)F)c1C(=O)N1CC(Oc2ccc(Cl)cn2)C1 [Example 232, 5-Chloro-2-({1-[3-methanesulfonyl-2-methoxy-6-(2,2,2-trifluoroethoxy)benzoyl]azetidin-3-yl}oxy)pyridine] |
| 100 to 1000 | COc1c(C#N)ccc(O[C@H](C)C(F)(F)F)c1C(=O)N1CC(c2ncc(C(F)(F)F)cc2Cl)C1 [Example 136, 3-{3-[3-Chloro-5-(trifluoromethyl)pyridin-2-yl]azetidine-1-carbonyl}-2-methoxy-4-{[(2R)-1,1,1-trifluoropropan-2-yl]oxy}benzonitrile] |
| 100 to 1000 | COc1c(S(C)(=O)=O)ccc(O[C@@H](C)C(F)(F)F)c1C(=O)N1CC(Oc2ccncc2)C1 [Example 62, 4-{[1-(3-Methanesulfonyl-2-methoxy-6-{[(2S)-1,1,1-trifluoropropan-2-yl]oxy}benzoyl)azetidin-3-yl]oxy}pyridine] |
| < 100 | COc1c(S(C)(=O)=O)ccc(O[C@@H](C)C(F)(F)F)c1C(=O)N1CC(Oc2ccc(Cl)cc2)C1 [Example 201, 3-(4-Chlorophenoxy)-1-(3-methanesulfonyl-2-methoxy-6-{[(2S)-1,1,1-trifluoropropan-2-yl]oxy}benzoyl)azetidine] |
| 100 to 1000 | CCS(=O)(=O)c1ccc(OC(C)C)c(C(=O)N2CC(c3ccc(C(F)(F)F)cc3)C2)c1OC [Example 242, 1-[3-(Ethanesulfonyl)-2-methoxy-6-(propan-2-yloxy)benzoyl]-3-[4-(trifluoromethyl)phenyl]azetidine] |
| 1000 to 10000 | COc1c(C#N)ccc(OC(C)C(F)(F)F)c1C(=O)N1CC(c2ccncc2)C1 (centres unmarked) [Example 75, 2-Methoxy-3-{[3-(pyridin-4-yl)azetidin-1-yl]carbonyl}-4-[(1,1,1-trifluoropropan-2-yl)oxy]benzonitrile] |
| < 100 | COc1c(C#N)ccc(C2(F)CCC(F)(F)CC2)c1C(=O)N1CC(c2ccc(C#N)cc2Cl)C1 [Example 133, 3-{[3-(2-Chloro-4-cyanophenyl)azetidin-1-yl]carbonyl}-2-methoxy-4-(1,4,4-trifluorocyclohexyl)benzonitrile] |
| 100 to 1000 | CC(Oc1ccc(C#N)c(Cl)c1C(=O)N1CC(c2ccc(F)cc2)C1)C(F)(F)F (centres unmarked) [Example 86, 2-Chloro-3-{[3-(4-fluorophenyl)azetidin-1-yl]carbonyl}-4-[(1,1,1-trifluoropropan-2-yl)oxy]benzonitrile] |
| < 100 | COc1c(S(C)(=O)=O)ccc(O[C@@H](C)C(F)(F)F)c1C(=O)N1CC(c2cc(F)c(F)c(F)c2)C1 [Example 150, 1-(3-Methanesulfonyl-2-methoxy-6-{[(2S)-1,1,1-trifluoropropan-2-yl]oxy}benzoyl)-3-(3,4,5-trifluorophenyl)azetidine] |
